Data on 1 compound can be found in patent US20190216751A1, “Compositions and Methods for the Treatment and Prevention of Cancer” (California State University Northridge, priority 2017, published 2019).

The structures appear in SMILES notation.

In one assay the test system is MDA-MB-468 cells. The experiment in a line: Cell proliferation assay (CellTiter 96 AQueous One, MTS). In kind it is cell-based, human. To be noted: TubA 1 μM pretreatment, GC7 0.1 nM to 1 mM. The source says:
(§1) The next research questions revolved around asking how TGFβ is regulating eIF5A and what other proteins might be involved to completely block TGFβ-induced EMT. This led to histone deacetylase enzyme 6 (HDAC6). HDAC6 has been previously reported to be responsible for the deacetylation of eIF5A in the nucleus in order to make it readily available for hypusination and later transport out in the cytoplasm for functioning as a translation factor. To determine if it were possible to further increase the efficacy or potency of GC7, the inventors co-treated with Tubastatin A (an HDAC6 inhibitor) in 4T1 and 67NR cells as well as MDA-MB-468 cells which initially were not very sensitive to GC7. Triple negative human breast cancer cell line, BT547, was also used to see if another cell line representative of this breast cancer subtype was sensitive towards DHPS and HDAC6 inhibition. (FIGS. 5A and 5B). […] MDA-MB-468 and BT549 cells remained to be insensitive to TubA with or without GC7 pretreatment (FIG. 5A). […]
(§2) The CellTiter 96® AQueous One Solution (Promega) was used to perform cell proliferation experiments. […] Absorbance readings were measured at 490 nm wavelength at 1.5, 2 and 3 hours (absorbance is directly proportional to the number of living cells).

Another assay relates to BT549 cells. The description is as above. In kind it is cell-based, human. To be noted: TubA 1 μM pretreatment, GC7 0.1 nM to 1 mM.
Description: as §1, §2

Regarding `N=C(N)NCCCCCCCN.O=S(=O)(O)O` [GC7, N1-Guanyl-1,7-diaminoheptane], the “change of potency of GC7 by TubA pretreatment (cell viability)” value in the assay with MDA-MB-468 cells and with BT549 cells was “this effect was not seen in the three other cell lines” each time.
